The values that follow come from patent publication US12366572B2, “Activation of bioluminescence by structural complementation” (Promega Corporation, priority 2013, dated 2025).

This experiment concerns the target NLpoly 11S (Oplophorus gracilirostris, UniProt Q9GV45, A31E/A60N/A81I/D135N/F58L/F95D/G184S/G42A/G62A/G78A/G94A/G98A/H120P/I103V/I117V/I134L/K70R/L176M/L26M/L54V/L73R/L99Q/M102E/N171T/P142E/Q151K/Q38E/Q45L/T27V/V71I/Y165I). In words: biochemical. The format is binding.

Chain of NLpoly 11S (Q9GV45 26-184 with the stated changes limits assumed): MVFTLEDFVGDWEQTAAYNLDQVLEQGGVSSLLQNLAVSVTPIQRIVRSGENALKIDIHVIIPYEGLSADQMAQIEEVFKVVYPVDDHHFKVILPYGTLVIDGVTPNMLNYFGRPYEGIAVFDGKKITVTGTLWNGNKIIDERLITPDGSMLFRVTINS

Molecule “Ac-VTGYRLFEKAL-NH2 [array2.47, VTGYRLFEKAL]” showed a dissociation constant (Kd) of 1.81 µM. The value for “Ac-VEGYRLFEQES-NH2 [array2.78, VEGYRLFEQES]” was 252 µM; that for “Ac-VTGYRLFKQIS-NH2 [array2.4, VTGYRLFKQIS]” was 0.746 µM.

In the case of “Ac-VTGYRLFEQEL-NH2 [array2.51, VTGYRLFEQEL]”, the dissociation constant (Kd) worked out at 85 µM. In turn, “Ac-VEGYRLFQQIS-NH2 [array2.67, VEGYRLFQQIS]” had a dissociation constant Kd of 8.14 µM. The value for “Ac-VEGYRLFEKIL-NH2 [array2.100, VEGYRLFEKIL]” was 10.6 µM; that for “Ac-VEGYRLFQQEL-NH2 [array2.96, VEGYRLFQQEL]” was 99.4 µM. For “Ac-VTGYRLFKEES-NH2 [array2.9, VTGYRLFKEES]” the value was 3.86 µM. “Ac-VEGYRLFQKEL-NH2 [array2.93, VEGYRLFQKEL]” showed a dissociation constant (Kd) of 1.69 µM. “Ac-VEGYRLFQQAL-NH2 [array2.95, VEGYRLFQQAL]” returned a Kd of 18.8 µM. The value for “Ac-VTGYRLFKQIL-NH2 [array2.31, VTGYRLFKQIL]” was 2.99 µM; that for “Ac-VTGYRLFKQAL-NH2 [array2.32, VTGYRLFKQAL]” was 3.56 µM; that for “Ac-VTGYRLFQKAS-NH2 [array2.11, VTGYRLFQKAS]” was 0.748 µM. For “Ac-VTGYRLFKKIL-NH2 [array2.28, VTGYRLFKKIL]” the value was 0.0766 µM; for “Ac-VEGYRLFKQEL-NH2 [array2.87, VEGYRLFKQEL]”, 12.6 µM. The value for “Ac-VTGYRLFKQES-NH2 [array2.6, VTGYRLFKQES]” was 1.35 µM; that for “Ac-VTGYRLFQEIS-NH2 [array2.16, VTGYRLFQEIS]” was 2.56 µM; that for “Ac-VTGYRLFQQES-NH2 [array2.15, VTGYRLFQQES]” was 7.49 µM.

Consider “Ac-VEGYRLFKKES-NH2 [array2.57, VEGYRLFKKES]”, for which binding was characterised by a dissociation constant (Kd) of 0.891 µM. For “Ac-VEGYRLFKQAS-NH2 [array2.59, VEGYRLFKQAS]” the value was 2.09 µM; for “Ac-VEGYRLFKQIS-NH2 [array2.58, VEGYRLFKQIS]”, 2.09 µM; for “Ac-VEGYRLFQEAL-NH2 [array2.98, VEGYRLFQEAL]”, 99.9 µM. The value for “Ac-VTGYRLFKKES-NH2 [array2.3, VTGYRLFKKES]” was 0.773 µM; that for “Ac-VTGYRLFEKAS-NH2 [array2.20, VTGYRLFEKAS]” was 1.79 µM. For “Ac-VTGYRLFKEEL-NH2 [array2.36, VTGYRLFKEEL]” the value was 7.78 µM; for “Ac-VTGYRLFKKEL-NH2 [array2.30, VTGYRLFKKEL]”, 0.671 µM; for “Ac-VEGYRLFEQAS-NH2 [array2.77, VEGYRLFEQAS]”, 48.3 µM.

In turn, “Ac-VEGYRLFEQIS-NH2 [array2.76, VEGYRLFEQIS]” came in with an equilibrium dissociation constant (Kd) of 52.8 µM. For “Ac-VTGYRLFEQIL-NH2 [array2.49, VTGYRLFEQIL]” the value was 124 µM; for “Ac-VTGYRLFQQIL-NH2 [array2.40, VTGYRLFQQIL]”, 122 µM; for “Ac-VEGYRLFQKAL-NH2 [array2.92, VEGYRLFQKAL]”, 2.02 µM. For “Ac-VTGYRLFQQIS-NH2 [array2.13, VTGYRLFQQIS]” the value was 0.876 µM; for “Ac-VTGYRLFQKEL-NH2 [array2.39, VTGYRLFQKEL]”, 2.48 µM.

“Ac-VEGYRLFEEAS-NH2 [array2.80, VEGYRLFEEAS]” had a Kd of 1420 µM. The value for “Ac-VEGYRLFKKIS-NH2 [array2.55, VEGYRLFKKIS]” was 0.078 µM; that for “Ac-VEGYRLFKQAL-NH2 [array2.86, VEGYRLFKQAL]” was 2.27 µM; that for “Ac-VTGYRLFEQES-NH2 [array2.24, VTGYRLFEQES]” was 7.83 µM. For “Ac-VTGYRLFQEES-NH2 [array2.18, VTGYRLFQEES]” the value was 67.3 µM; for “Ac-VTGYRLFEKEL-NH2 [array2.48, VTGYRLFEKEL]”, 2.44 µM; for “Ac-VEGYRLFEKAS-NH2 [array2.74, VEGYRLFEKAS]”, 4.14 µM. The value for “Ac-VTGYRLFQKAL-NH2 [array2.38, VTGYRLFQKAL]” was 0.975 µM; that for “Ac-VEGYRLFKEIS-NH2 [array2.61, VEGYRLFKEIS]” was 14.4 µM. Turning to “Ac-VTGYRLFQKIS-NH2 [array2.10, VTGYRLFQKIS]”, the dissociation constant (Kd) is 0.0812 µM.

For “Ac-VEGYRLFEQAL-NH2 [array2.104, VEGYRLFEQAL]”, binding was put at a Kd of 336 µM. For “Ac-VEGYRLFQKES-NH2 [array2.66, VEGYRLFQKES]” the value was 2.87 µM.

For “Ac-VEGYRLFQEAS-NH2 [array2.71, VEGYRLFQEAS]”, the Kd came out at 24 µM.

In the case of “Ac-VTGYRLFKKAL-NH2 [array2.29, VTGYRLFKKAL]”, the dissociation constant (Kd) worked out at 0.275 µM. The value for “Ac-VEGYRLFQEIS-NH2 [array2.70, VEGYRLFQEIS]” was 230 µM. For “Ac-VTGYRLFKEIS-NH2 [array2.7, VTGYRLFKEIS]” the value was 4.44 µM. Molecule “Ac-VTGYRLFKEAS-NH2 [array2.8, VTGYRLFKEAS]” gave a Kd of 2.57 µM. The value for “Ac-VEGYRLFKEAL-NH2 [array2.89, VEGYRLFKEAL]” was 42.4 µM; that for “Ac-VTGYRLFKKIS-NH2 [array2.1, VTGYRLFKKIS]” was 0.0133 µM. The value for “Ac-VTGYRLFQQEL-NH2 [array2.42, VTGYRLFQQEL]” was 19 µM; that for “Ac-VTGYRLFEEIL-NH2 [array2.52, VTGYRLFEEIL]” was 104 µM. Molecule “Ac-VTGYRLFEEEL-NH2 [array2.54, VTGYRLFEEEL]” showed a dissociation constant Kd of 68.3 µM. The value for “Ac-VEGYRLFQKAS-NH2 [array2.65, VEGYRLFQKAS]” was 1.93 µM. The value for “Ac-VEGYRLFKEIL-NH2 [array2.88, VEGYRLFKEIL]” was 17.8 µM. For “Ac-VEGYRLFQKIS-NH2 [array2.64, VEGYRLFQKIS]” the value was 0.586 µM. The molecule “Ac-VTGYRLFKQEL-NH2 [array2.33, VTGYRLFKQEL]” registered an equilibrium dissociation constant (Kd) of 1.95 µM. The value for “Ac-VTGYRLFEQAS-NH2 [array2.23, VTGYRLFEQAS]” was 4.17 µM; that for “Ac-VTGYRLFEKIL-NH2 [array2.46, VTGYRLFEKIL]” was 1.92 µM; that for “Ac-VEGYRLFKKAL-NH2 [array2.83, VEGYRLFKKAL]” was 1.59 µM. The value for “Ac-VEGYRLFKQIL-NH2 [array2.85, VEGYRLFKQIL]” was 10.3 µM. For “Ac-VEGYRLFKKEL-NH2 [array2.84, VEGYRLFKKEL]” the value was 1.41 µM; for “Ac-VTGYRLFEQAL-NH2 [array2.50, VTGYRLFEQAL]”, 40.4 µM; for “Ac-VEGYRLFQKIL-NH2 [array2.91, VEGYRLFQKIL]”, 2.08 µM. The molecule “Ac-VTGYRLFKKAS-NH2 [array2.2, VTGYRLFKKAS]” showed a dissociation constant Kd of 0.241 µM.

As for “Ac-VEGYRLFEKEL-NH2 [array2.102, VEGYRLFEKEL]”, binding was characterised by a dissociation constant (Kd) of 5.79 µM.

For the molecule “Ac-VTGYRLFKEAL-NH2 [array2.35, VTGYRLFKEAL]”, the Kd worked out at 5.15 µM. The value for “Ac-VEGYRLFQQAS-NH2 [array2.68, VEGYRLFQQAS]” was 20 µM; that for “Ac-VEGYRLFKKAS-NH2 [array2.56, VEGYRLFKKAS]” was 0.641 µM; that for `CC[C@H](C)[C@H](NC(=O)[C@H](CCCCN)NC(=O)[C@H](CCC(=O)O)NC(=O)[C@H](Cc1ccccc1)NC(=O)[C@H](CC(C)C)NC(=O)[C@H](CCCNC(=N)N)NC(=O)[C@H](Cc1ccc(O)cc1)NC(=O)CNC(=O)[C@@H](NC(=O)[C@@H](NC(C)=O)C(C)C)[C@@H](C)O)C(=O)N[C@@H](CO)C(N)=O` [array2.19, VTGYRLFEKIS] was 0.605 µM. The value for “Ac-VTGYRLFKQAS-NH2 [array2.5, VTGYRLFKQAS]” was 1.95 µM; that for “Ac-VTGYRLFQEEL-NH2 [array2.45, VTGYRLFQEEL]” was 35.4 µM; that for “Ac-VEGYRLFQQIL-NH2 [array2.94, VEGYRLFQQIL]” was 9.39 µM. The value for “Ac-VTGYRLFEQIS-NH2 [array2.22, VTGYRLFEQIS]” was 10.8 µM; that for “Ac-VEGYRLFKKIL-NH2 [array2.82, VEGYRLFKKIL]” was 0.563 µM; that for “Ac-VTGYRLFQQAS-NH2 [array2.14, VTGYRLFQQAS]” was 1.11 µM.

In the case of “Ac-VEGYRLFEKIS-NH2 [array2.73, VEGYRLFEKIS]”, the Kd came to 2.15 µM. The value for “Ac-VTGYRLFQEIL-NH2 [array2.43, VTGYRLFQEIL]” was 17.3 µM; that for “Ac-VTGYRLFKEIL-NH2 [array2.34, VTGYRLFKEIL]” was 4.41 µM. The value for “Ac-VEGYRLFKEAS-NH2 [array2.62, VEGYRLFKEAS]” was 22.1 µM. The value for “Ac-VEGYRLFKEEL-NH2 [array2.90, VEGYRLFKEEL]” was 101 µM; that for “Ac-VTGYRLFQEAL-NH2 [array2.44, VTGYRLFQEAL]” was 16 µM; that for “Ac-VTGYRLFQKES-NH2 [array2.12, VTGYRLFQKES]” was 0.417 µM. Consider “Ac-VTGYRLFQKIL-NH2 [array2.37, VTGYRLFQKIL]”, for which the Kd was 0.362 µM.

Molecule “Ac-VEGYRLFEKES-NH2 [array2.75, VEGYRLFEKES]” gave an equilibrium dissociation constant (Kd) of 2.97 µM. For “Ac-VEGYRLFKEES-NH2 [array2.63, VEGYRLFKEES]” the value was 220 µM; for “Ac-VEGYRLFEKAL-NH2 [array2.101, VEGYRLFEKAL]”, 12.6 µM.
